Reference: PubChem BioAssay (NCI)
“And” between values parts separate entries of the source, which are not always exact repeats. Equal entries are not always repeated.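 All cell lines were grown in 96-well plates and treated with compound for 48 hours. GI50 marks 50% less growth. Definition used: TGI = concentration required for complete inhibition of growth.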

Key:
Test in all cases: growth of human tumour cells (NCI), 48 h
CAKI-1 renal = test system: CAKI-1 renal
HOP-92 NSCLC = test system: HOP-92 NSCLC
OVCAR-5 ovarian = test system: OVCAR-5 ovarian
OVCAR-8 ovarian = test system: OVCAR-8 ovarian
MDA-MB-231 breast = test system: MDA-MB-231 breast
NCI/ADR-RES ovarian = test system: NCI/ADR-RES ovarian
MDA-N = test system: MDA-N
RXF 393 renal = test system: RXF 393 renal
NCI-H522 lung = test system: NCI-H522 lung
HOP-62 NSCLC = test system: HOP-62 NSCLC
IGROV1 ovarian = test system: IGROV1 ovarian

SMILES | TGI (CAKI-1 renal) | TGI (HOP-92 NSCLC) [µM] | TGI (OVCAR-5 ovarian) | TGI (OVCAR-8 ovarian) | TGI (MDA-MB-231 breast) | TGI (NCI/ADR-RES ovarian) | TGI (MDA-N) | TGI (RXF 393 renal) [µM] | TGI (NCI-H522 lung) | TGI (HOP-62 NSCLC) | TGI (IGROV1 ovarian) | GI50 (OVCAR-5 ovarian) [µM] | GI50 (NCI/ADR-RES ovarian) [µM] | GI50 (MDA-N) [µM] | GI50 (HOP-62 NSCLC) [µM] | GI50 (IGROV1 ovarian) [µM]
Cn1c(N/N=C/c2ccc(Cl)cc2)nc(-c2ccc(Cl)cc2)c(C#N)c1=O | > 100 µM | 57.7 | 51.1 µM | 44.6 µM | 48.8 µM | > 100 µM | > 100 µM | 57.8 | 33.6 µM | 25.1 µM | 25.6 µM |  |  |  |  | 
CN(C)CCOc1ccc(-c2c(Oc3ccc(Cl)cc3)c(=O)oc3ccccc23)cc1 | 39.6 µM | > 39.4 | 35.7 µM | > 42.8 µM | 22.4 µM | > 52.1 µM | 13.5 µM | > 48.3 | 20.9 µM | 87.8 µM | 19.2 µM |  |  |  |  | 
CC1CC[C@]2(C(=O)O)CCC3(C)C(=C2[C@H]1C)C=CC1[C@@]2(C)CC[C@H](O)C(C)(C)C2CC[C@]13C (some centres undefined) | 84.1 µM | 43.9 | > 100 µM | > 100 µM | 70 µM | > 100 µM | > 100 µM | 29 | > 100 µM | 74.8 µM | 98.2 µM |  |  |  |  | 
OC1CN=C2c3ccccc3C(O)(c3ccc(Cl)cc3)N2C1 (centres undefined) | > 100 µM | 94.6 | > 100 µM | > 100 µM | > 100 µM | > 100 µM | > 100 µM | > 100 | > 100 µM | > 100 µM | > 100 µM |  |  |  |  | 
CN(C)c1ccc(C(c2ccc(N(C)C)cc2)c2ccc([N+](=O)[O-])cc2)cc1 | > 100 µM | > 100 | > 100 µM | > 100 µM | > 100 µM | > 100 µM | > 100 µM | > 100 | > 100 µM | > 100 µM | > 100 µM |  |  |  |  | 
O=C1CSC2(CCN(CCCN3c4ccccc4Sc4ccc(Cl)cc43)CC2)N1 | 25 µM | 20.3 | 24.3 µM | 23.8 µM | 18.8 µM | 20.2 µM | 23.6 µM | 16.3 | 23.6 µM | 25.5 µM | 20.8 µM |  |  |  |  | 
CC1=Nn2c(nc3sc4c(c3c2=O)CCCC4)SC1 | > 100 µM | > 100 | > 100 µM | > 100 µM | > 100 µM | > 100 µM | > 31.6 µM | > 100 | > 100 µM | > 100 µM | > 100 µM |  |  |  |  | 
NNC(=O)c1ccccc1NC(=O)/C(=C/c1ccccc1)NC(=O)c1ccccc1 | > 100 µM | > 100 | > 100 µM | > 100 µM | > 100 µM | > 100 µM | > 100 µM | > 100 | > 100 µM | > 100 µM | > 100 µM |  |  |  |  | 
COc1cccc(C2c3cc4c(cc3OC(N3CCOCC3)C2C)OCO4)c1O (centres undefined) | 18.6 µM | 71.4 | 60 µM | 60.1 µM | 47.5 µM | 19.1 µM | 4.58 µM | 9.43 | 8.39 µM | 26 µM | 53.7 µM |  |  |  |  | 
COc1ccc2nc3c([N+](=O)[O-])ccc4c3c(c2c1)NCCN4C | 9.13 µM | 6.44 | 23 µM | 14.9 µM | 3.01 µM | 7.73 µM | 2.21 µM | 0.878 | 3.31 µM | 3.16 µM | 4.52 µM |  |  |  |  | 
Cc1ccc2c3c1O[C@H]1c4nc5ccccc5cc4C[C@@]4(O)[C@@H](C2)N(CC2CC2)CC[C@]314 | 32.7 µM | 58.3 | 25.8 µM | 22.6 µM | 23.5 µM | 23.5 µM | 25.4 µM | 21.1 | 27.5 µM | 31.3 µM | > 100 µM |  |  |  |  | 
Cc1cc2ccccc2c[n+]1CC(=O)CC([O-])(C(F)(F)F)C(F)(F)F | > 100 µM | > 100 | > 100 µM | > 100 µM | > 100 µM | > 100 µM | > 100 µM | > 100 | > 100 µM | > 100 µM | > 100 µM |  |  |  |  | 
COc1ccc(N=C/C=C/Nc2ccc(OC)cc2)cc1 | 12.5 µM | 29.6 | 29.6 µM | 9.9 µM | 6.02 µM | 25 µM | 14.4 µM | 18.5 | 23.7 µM | 12.1 µM | 25.1 µM |  |  |  |  | 
CC(=O)Oc1ccc2c(c1)CC[C@@H]1C2[C@@H](O[N+](=O)[O-])C[C@@]2(C)C1CC[C@@H]2O (some centres undefined) | > 100 µM | > 100 | > 71.8 µM | > 86.7 µM | > 100 µM | 97.3 µM | 27.9 µM | > 100 | > 86.7 µM | > 60.5 µM | > 100 µM |  |  |  |  | 
COC(=O)CC1C2CC3C(C2=O)C13 (centres undefined) | > 100 µM | > 100 | > 100 µM | > 100 µM | > 100 µM | > 100 µM | > 100 µM | > 100 | > 100 µM | > 100 µM | > 100 µM |  |  |  |  | 
CN(C)c1ccc(/C=N/NC2=N/C(=C\c3ccco3)C(=O)N2)cc1 | > 100 µM | > 100 | > 100 µM | > 100 µM | > 100 µM | > 100 µM | > 100 µM | > 100 | > 100 µM | > 100 µM | > 100 µM |  |  |  |  | 
O=C1NC(N2CCOCC2)=N/C1=C\c1ccccc1O | > 100 µM | > 100 | > 100 µM | > 100 µM | > 100 µM | > 100 µM | > 100 µM | > 100 | > 100 µM | > 100 µM | > 100 µM |  |  |  |  | 
NC1CCC(c2cc3ccccc3s2)(N2CCCCC2)CC1 (centres undefined) | 10.1 µM | 5.15 | 6.23 µM | 3.67 µM | 12.9 µM | 2.42 µM | 3.2 µM | 21.2 | 4.15 µM | 4.5 µM | 3.26 µM |  |  |  |  | 
CN(C)Cc1cc(C(=O)O)cc(CN(C)C)c1O | > 100 µM | > 100 | > 100 µM | > 100 µM | > 100 µM | > 100 µM | > 100 µM | > 100 | > 100 µM | > 100 µM | > 100 µM |  |  |  |  | 
O=C1/C(=C/c2cccs2)N=C(c2ccccc2)N1C1Nc2cc3c(cc2S1)NC(N1C(=O)/C(=C/c2cccs2)N=C1c1ccccc1)S3 (centres undefined) | > 100 µM | > 100 | 75 µM | 47.2 µM | > 100 µM | 33.6 µM | 41 µM | 78.8 | 31.4 µM | > 100 µM | > 100 µM |  |  |  |  | 
COC1C(O)=C2C(=O)OC(C)(O)/C=C/C=C\C=C/C=C/C(c3ccccc3)NC(=O)/C=C/C=C/C=C/C=C/C2(C)C1O (centres undefined) | 0.125 µM and 0.0222 µM | 0.00909 | 0.566 µM and 0.224 µM | 0.0241 µM and 0.146 µM | 0.105 µM and 0.0133 µM | 0.0535 µM and 0.206 µM | 0.141 µM and 0.17 µM | 0.0425 | 0.038 µM and 0.11 µM | 0.212 µM and 0.193 µM | 0.15 µM and 0.168 µM | 0.0649 | 0.0142 | 0.0329 | 0.041 | 0.0303
COc1ccc(-c2cn3c(n2)sc2cc(C)ccc23)cc1 | > 100 µM | 20.8 | > 100 µM | 47.2 µM | 42.4 µM | > 100 µM | 58.4 µM | 35.8 | 51.4 µM | 81.3 µM | 42.1 µM |  |  |  |  | 
c1ccc2c(c1)SC1Sc3ccccc3[S+]21 (centres undefined) | 44.8 µM | 69.9 | > 100 µM | > 78.3 µM | 80.3 µM | 51 µM | 53.6 µM | > 73.1 | 26.1 µM | > 100 µM | 50.5 µM |  |  |  |  | 
COc1cc2[nH]c(-c3ccccc3)cc(=O)c2cc1OC | > 100 µM | > 100 | > 100 µM | > 89.4 µM | > 87.3 µM | > 100 µM | 6.44 µM | > 72.7 | > 56.3 µM | > 100 µM | > 100 µM |  |  |  |  | 
COc1ccc2c(c1)CC[C@@H]1[C@@H]2CC[C@]2(C)/C(=N/OCCN3CCCCC3)CC[C@@H]12 | 4.17 µM | 14.4 | 16.6 µM | 23.1 µM | 23.6 µM | 24.2 µM | 5.9 µM | 8.17 | 18.9 µM | 21 µM | 5.6 µM |  |  |  |  | 
Cn1c2ccccc2n2c3nc4ccccc4nc3c(C#N)c12 | > 100 µM | > 100 | > 100 µM | > 100 µM | > 100 µM | > 100 µM | > 100 µM | > 100 | > 96.6 µM | > 100 µM | > 100 µM |  |  |  |  | 
C/C(=N/O)c1cccc(Nc2nc3ccccc3c3[nH]c4ccccc4c23)c1 | 6.89 µM | 6.95 | 9.27 µM | > 24.4 µM | 11.5 µM | 20 µM | 7.56 µM | 4.59 | 4.4 µM | 8.83 µM | 13.3 µM |  |  |  |  | 
CN(C)CCCOC(=O)C(O)(Cc1ccccc1)C1CC1 (centres undefined) | > 100 µM | > 100 | > 100 µM | > 100 µM | > 100 µM | > 100 µM | > 100 µM | > 100 | > 100 µM | > 100 µM | > 100 µM |  |  |  |  | 
CCN(CC)C(=O)CCCCCCCCC1CO1 (centres undefined) | > 100 µM | > 100 | > 100 µM | > 100 µM | > 100 µM | > 100 µM | > 100 µM | > 100 | > 100 µM | > 100 µM | > 100 µM |  |  |  |  | 
